Values of other authors in patent EP0200541B1, “Immunochemical method and analytical composition and element for determination of creatine kinase-MB” (EASTMAN KODAK COMPANY (a New Jersey corporation), priority 1985, dated 1986).

What was measured:
total AK = settings: AMP:ADP molar ratio of 10:1
erythrocyte AK = molecular target: T1, erythrocyte AK (Homo sapiens, UniProt P00568); settings: 0.01 millimolar DAPP
T1 sequence (P00568 1-194): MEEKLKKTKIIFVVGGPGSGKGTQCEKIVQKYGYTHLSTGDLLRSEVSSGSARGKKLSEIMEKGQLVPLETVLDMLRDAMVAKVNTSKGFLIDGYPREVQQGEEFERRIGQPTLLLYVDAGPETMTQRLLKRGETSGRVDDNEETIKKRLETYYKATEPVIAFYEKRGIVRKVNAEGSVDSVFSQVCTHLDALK

muscle AK = molecular target: T2, muscle AK (Homo sapiens, UniProt P00568); settings: 0.01 millimolar DAPP
T2 sequence (P00568 1-194): T1 sequence (P00568 1-194)

liver AK = liver AK (Homo sapiens, UniProt P54819)
CK-MB = CK-MB (Homo sapiens, UniProt P06732+P12277); settings: 0.5-1 millimolar DAPP
Sequence of CK-MB (P06732 whole entry): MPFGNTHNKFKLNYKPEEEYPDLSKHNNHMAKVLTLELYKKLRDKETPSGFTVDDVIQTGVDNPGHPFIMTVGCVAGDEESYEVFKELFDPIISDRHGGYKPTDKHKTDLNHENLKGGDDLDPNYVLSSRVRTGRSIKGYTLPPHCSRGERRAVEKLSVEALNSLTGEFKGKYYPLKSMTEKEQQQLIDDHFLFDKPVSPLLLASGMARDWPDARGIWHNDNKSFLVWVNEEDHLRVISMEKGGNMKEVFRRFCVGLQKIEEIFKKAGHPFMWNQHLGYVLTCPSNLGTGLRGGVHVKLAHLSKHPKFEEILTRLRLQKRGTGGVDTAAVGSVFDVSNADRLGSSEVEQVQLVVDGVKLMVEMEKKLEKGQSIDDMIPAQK
Sequence of CK-MB (P12277 whole entry): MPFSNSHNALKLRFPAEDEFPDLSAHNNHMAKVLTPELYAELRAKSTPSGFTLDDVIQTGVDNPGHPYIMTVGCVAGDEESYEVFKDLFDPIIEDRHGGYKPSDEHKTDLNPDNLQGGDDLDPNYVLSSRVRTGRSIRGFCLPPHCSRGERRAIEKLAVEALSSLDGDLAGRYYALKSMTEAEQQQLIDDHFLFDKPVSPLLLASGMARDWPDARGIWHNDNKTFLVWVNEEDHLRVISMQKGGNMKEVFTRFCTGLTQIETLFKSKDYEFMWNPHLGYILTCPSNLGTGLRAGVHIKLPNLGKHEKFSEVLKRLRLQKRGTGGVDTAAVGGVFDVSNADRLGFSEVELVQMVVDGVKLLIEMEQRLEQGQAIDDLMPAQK

Nc1ncnc2c1ncn2[C@@H]1O[C@H](COP(=O)(O)O)[C@@H](O)[C@H]1O [AMP, adenosine-5'-monophosphate]
total AK inhibited (total AK): 95%
reduction of the activity of total CK (total CK; AMP:ADP molar ratio of 10:1): 15-20%

Nc1ncnc2c1ncn2[C@@H]1O[C@H](COP(=O)(O)OP(=O)(O)OP(=O)(O)OP(=O)(O)OP(=O)(O)OC[C@H]2O[C@@H](n3cnc4c(N)ncnc43)[C@H](O)[C@@H]2O)[C@@H](O)[C@H]1O [DAPP, P^1,P^5-di(adenosine-5')pentaphosphate]
erythrocyte AK inhibited (erythrocyte AK): 97%
muscle AK inhibited (muscle AK): 97%
liver isoenzyme inhibited (liver AK; 0.01 millimolar DAPP): 80%
activity of liver AK inhibited (liver AK; 0.5-1 millimolar DAPP alone): up to 97%
reduction in CK activity (total CK; 0.5-1 millimolar DAPP alone): 5%
reduction of the activity of CK-MB (CK-MB): at least 5%
